Experimental data as given in publication PMC9990178 (Cell Chemical Biology, 2023).

Assays:
[1] = test system: Smad3 phosphorylation, α-SMA, COL1A1; assay type: cell-based, mouse; details: Alpha, Beta, Gamma, Delta, Omicron N protein; 20 μM, 36 h
[2] = test system: pulmonary fibrosis induced by N protein of the Omicron variant; assay type: in vivo; details: mice, AAV encoding Omicron N protein

**Q.** With `O=c1c(O)c(N2CCN(Cc3ccc(Br)cc3F)CC2)oc2ccccc12` [RMY-205, 2-(4-(4-bromo-2-fluorobenzyl)piperazin-1-yl)-3-hydroxy-4H-chromen-4-one] as the molecule, how does the “Smad3 phosphorylation induced by N protein variants” value [1] read?
**A.** abolished

**Q.** And the “α-SMA and COL1A1 expression induced by N protein variants” value [1]?
**A.** suppression

**Q.** And the “pro-fibrotic effects of N protein of the Omicron variant” value [2]?
**A.** effectively suppressed
